Test results: ChEMBL document CHEMBL1201861, “Genomics of Drug Sensitity in Cancer screening data, Wellcome Trust Sanger Institute”

What was measured:
[1] = test system: COR-L279; experiment: SANGER: Inhibition of human COR-L279 cell growth in a cell viability assay.; type: functional, cell-based; conditions: Homo sapiens, COR-L279
[2] = test system: DMS-273; experiment: cells; type: functional, cell-based, Homo sapiens; conditions: Homo sapiens, DMS-273
Description: SANGER: Inhibition of human DMS-273 cell growth in a cell viability assay.

[3] = test system: EFO-27; experiment: cells; type: functional, cell-based, Homo sapiens; conditions: Homo sapiens, EFO-27;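 note: growth inhibition of EFO-27 cells, read out with a cell viability assay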
Description: SANGER: Inhibition of human EFO-27 cell growth in a cell viability assay.

[4] = test system: FaDu; experiment: cells; type: functional, cell-based, Homo sapiens; conditions: Homo sapiens, FaDu;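 note: cell viability readout of growth inhibition in FaDu cells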
Description: SANGER: Inhibition of human FADU cell growth in a cell viability assay.

[5] = test system: HCC1395; experiment: cells; type: functional, cell-based, Homo sapiens; conditions: Homo sapiens, HCC1395;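 note: growth inhibition of HCC1395 cells, read out by a cell viability assay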
Description: SANGER: Inhibition of human HCC1395 cell growth in a cell viability assay.

[6] = test system: HCC1419; experiment: cells; type: functional, cell-based, Homo sapiens; conditions: Homo sapiens, HCC1419;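 note: growth inhibition of human HCC1419 cells, read out as cell viability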
Description: SANGER: Inhibition of human HCC1419 cell growth in a cell viability assay.

[7] = test system: HTC-C3; experiment: cells; type: functional, cell-based, Homo sapiens; conditions: Homo sapiens, HTC-C3;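 note: inhibition of cell growth, read out with a cell viability assay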
Description: SANGER: Inhibition of human HTC-C3 cell growth in a cell viability assay.

[8] = test system: J82; experiment: cells; type: functional, cell-based, Homo sapiens; conditions: Homo sapiens, J82;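 note: growth inhibition of J82 cells, read out with a cell viability assay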
Description: SANGER: Inhibition of human J82 cell growth in a cell viability assay.

[9] = test system: JIYOYE; experiment: cells; type: functional, cell-based, Homo sapiens; conditions: Homo sapiens, JIYOYE
Description: SANGER: Inhibition of human JiyoyeP-2003 cell growth in a cell viability assay.

[10] = test system: KU-19-19; experiment: cells; type: functional, cell-based, Homo sapiens; conditions: Homo sapiens, KU-19-19
Description: SANGER: Inhibition of human KU-19-19 cell growth in a cell viability assay.

[11] = test system: LB647-SCLC; experiment: cells; type: functional, cell-based, Homo sapiens; conditions: Homo sapiens, LB647-SCLC;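 note: cell growth inhibition, read out by a viability assay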
Description: SANGER: Inhibition of human LB647-SCLC cell growth in a cell viability assay.

[12] = test system: MHH-CALL-2; experiment: cells; type: functional, cell-based, Homo sapiens; conditions: Homo sapiens, MHH-CALL-2;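 note: growth inhibition of the cell line, read out in a cell viability assay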
Description: SANGER: Inhibition of human MHH-CALL-2 cell growth in a cell viability assay.

[13] = test system: MRK-nu-1; experiment: cells; type: functional, cell-based, Homo sapiens; conditions: Homo sapiens, MRK-nu-1;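 note: cell viability assay measuring growth suppression of human MRK-nu-1 cells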
Description: SANGER: Inhibition of human MRK-nu-1 cell growth in a cell viability assay.

[14] = test system: NALM-6; experiment: cells; type: functional, cell-based, Homo sapiens; conditions: Homo sapiens, NALM-6;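 note: growth inhibition of NALM-6 cells, read out with a cell viability assay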
Description: SANGER: Inhibition of human NALM-6 cell growth in a cell viability assay.

[15] = test system: NCI-H1623; experiment: cells; type: functional, cell-based, Homo sapiens; conditions: Homo sapiens, NCI-H1623;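 note: cell viability assay used as the read-out for growth inhibition of NCI-H1623 cells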
Description: SANGER: Inhibition of human NCI-H1623 cell growth in a cell viability assay.

[16] = test system: NCI-H2405; experiment: cells; type: functional, cell-based, Homo sapiens; conditions: Homo sapiens, NCI-H2405;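 note: growth inhibition of the human cell line, read out with a cell viability assay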
Description: SANGER: Inhibition of human NCI-H2405 cell growth in a cell viability assay.

[17] = test system: NCI-H2452; experiment: cells; type: functional, cell-based, Homo sapiens; conditions: Homo sapiens, NCI-H2452;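 note: growth inhibition of NCI-H2452 cells, read out with a cell viability assay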
Description: SANGER: Inhibition of human NCI-H2452 cell growth in a cell viability assay.

[18] = test system: NCI-H322M; experiment: cells; type: functional, cell-based, Homo sapiens; conditions: Homo sapiens, NCI-H322M;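 note: cell viability assay measuring inhibition of growth of human NCI-H322M cells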
Description: SANGER: Inhibition of human NCI-H322M cell growth in a cell viability assay.

[19] = test system: NCI-H441; experiment: cells; type: functional, cell-based, Homo sapiens; conditions: Homo sapiens, NCI-H441;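 note: growth inhibition of NCI-H441 cells, read out with a cell viability assay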
Description: SANGER: Inhibition of human NCI-H441 cell growth in a cell viability assay.

[20] = test system: NCI-H650; experiment: cells; type: functional, cell-based, Homo sapiens; conditions: Homo sapiens, NCI-H650;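 note: growth inhibition of NCI-H650 cells, read out by a viability assay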
Description: SANGER: Inhibition of human NCI-H650 cell growth in a cell viability assay.

[21] = test system: NCI-H889; experiment: cells; type: functional, cell-based, Homo sapiens; conditions: Homo sapiens, NCI-H889;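 note: cell growth inhibition of the cell line, read out with a viability assay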
Description: SANGER: Inhibition of human NCI-H889 cell growth in a cell viability assay.

[22] = test system: OE19; experiment: cells; type: functional, cell-based, Homo sapiens; conditions: Homo sapiens, OE19;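 note: growth inhibition of OE19 cells, measured through a cell viability read-out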
Description: SANGER: Inhibition of human OE19 cell growth in a cell viability assay.

[23] = test system: P12-Ichikawa; experiment: cells; type: functional, cell-based, Homo sapiens; conditions: Homo sapiens, P12-Ichikawa
[24] = test system: RD; experiment: cells; type: functional, cell-based, Homo sapiens; conditions: Homo sapiens, RD
Description: SANGER: Inhibition of human RD cell growth in a cell viability assay.

[25] = test system: RERF-LC-MS; experiment: cells; type: functional, cell-based, Homo sapiens; conditions: Homo sapiens, RERF-LC-MS;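 note: growth inhibition of human RERF-LC-MS cells, read out by a cell viability assay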
Description: SANGER: Inhibition of human RERF-LC-MS cell growth in a cell viability assay.

[26] = test system: SKG-IIIa; experiment: cells; type: functional, cell-based, Homo sapiens; conditions: Homo sapiens, SKG-IIIa;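 note: cell growth inhibition, read out with a cell viability assay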
Description: SANGER: Inhibition of human SKG-IIIa cell growth in a cell viability assay.

[27] = test system: SNU-C1; experiment: cells; type: functional, cell-based, Homo sapiens; conditions: Homo sapiens, SNU-C1;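 note: growth inhibition of SNU-C1 human cells, read out by a cell viability assay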
Description: SANGER: Inhibition of human SNU-C1 cell growth in a cell viability assay.

[28] = test system: ST486; experiment: SANGER: Inhibition of human ST486 cell growth in a cell viability assay.; type: functional, cell-based; conditions: Homo sapiens, ST486
[29] = test system: SW1710; experiment: cells; type: functional, cell-based, Homo sapiens; conditions: Homo sapiens, SW1710;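 note: growth inhibition of SW1710 cells, determined with a cell viability assay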
Description: SANGER: Inhibition of human SW1710 cell growth in a cell viability assay.

[30] = test system: SW48; experiment: cells; type: functional, cell-based, Homo sapiens; conditions: Homo sapiens, SW48;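 note: growth inhibition of SW48 cells, read out with a cell viability assay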
Description: SANGER: Inhibition of human SW48 cell growth in a cell viability assay.

[31] = test system: SW626; experiment: cells; type: functional, cell-based, Homo sapiens; conditions: Homo sapiens, SW626;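 note: growth inhibition of SW626 cells, measured with a cell viability assay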
Description: SANGER: Inhibition of human SW626 cell growth in a cell viability assay.

[32] = test system: SW948; experiment: cells; type: functional, cell-based, Homo sapiens; conditions: Homo sapiens, SW948;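 note: growth inhibition of SW948 cells, read out with a cell viability assay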
Description: SANGER: Inhibition of human SW948 cell growth in a cell viability assay.

[33] = test system: SiHa; experiment: cells; type: functional, cell-based, Homo sapiens; conditions: Homo sapiens, SiHa;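 note: Viability-based readout of growth inhibition in SiHa cells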
Description: SANGER: Inhibition of human SiHa cell growth in a cell viability assay.

[34] = test system: T-24; experiment: cells; type: functional, cell-based, Homo sapiens; conditions: Homo sapiens, T-24;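 note: growth inhibition of T-24 cells, read out with a cell viability assay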
Description: SANGER: Inhibition of human T-24 cell growth in a cell viability assay.

[35] = test system: TCC-SUP; experiment: cells; type: functional, cell-based, Homo sapiens; conditions: Homo sapiens, TCC-SUP;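 note: growth inhibition of TCC-SUP cells, read out with a cell viability assay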
Description: SANGER: Inhibition of human TCCSUP cell growth in a cell viability assay.

[36] = test system: 23132-87; experiment: cells; type: functional, cell-based, Homo sapiens; conditions: Homo sapiens
Description: SANGER: Inhibition of human 23132-87 cell growth in a cell viability assay.

[37] = test system: 5637; experiment: cells; type: functional, cell-based, Homo sapiens; conditions: Homo sapiens
Description: SANGER: Inhibition of human 5637 cell growth in a cell viability assay.

[38] = test system: 8305C; experiment: cells; type: functional, cell-based, Homo sapiens; conditions: Homo sapiens, 8305C
Description: SANGER: Inhibition of human 8305C cell growth in a cell viability assay.

[39] = test system: AGS; experiment: cells; type: functional, cell-based, Homo sapiens; conditions: Homo sapiens, AGS;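 note: growth inhibition of AGS cells, determined with a cell viability assay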
Description: SANGER: Inhibition of human AGS cell growth in a cell viability assay.

[40] = test system: ARH-77; experiment: cells; type: functional, cell-based, Homo sapiens; conditions: Homo sapiens, ARH-77;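 note: growth inhibition of ARH-77 cells, read out by a cell viability assay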
Description: SANGER: Inhibition of human ARH-77 cell growth in a cell viability assay.

[41] = test system: BCPAP; experiment: cells; type: functional, cell-based, Homo sapiens; conditions: Homo sapiens, BCPAP;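 note: growth inhibition of BCPAP cells, read out in a cell viability assay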
Description: SANGER: Inhibition of human BCPAP cell growth in a cell viability assay.

[42] = test system: BT-20; experiment: cells; type: functional, cell-based, Homo sapiens; conditions: Homo sapiens, BT-20;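 note: cell viability assay measuring suppression of growth in human BT-20 cells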
Description: SANGER: Inhibition of human BT-20 cell growth in a cell viability assay.

[43] = test system: C3A; experiment: cells; type: functional, cell-based, Homo sapiens; conditions: Homo sapiens, C3A;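 note: growth inhibition of C3A human cells, quantified with a cell viability readout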
Description: SANGER: Inhibition of human C3A cell growth in a cell viability assay.

[44] = test system: CAL-120; experiment: cells; type: functional, cell-based, Homo sapiens; conditions: Homo sapiens, CAL-120;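 note: cell growth inhibition, read out as cell viability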
Description: SANGER: Inhibition of human CAL-120 cell growth in a cell viability assay.

[45] = test system: CAL-72; experiment: cells; type: functional, cell-based, Homo sapiens; conditions: Homo sapiens, CAL-72;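 note: cell viability assay measuring inhibition of proliferation in the CAL-72 cell line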
Description: SANGER: Inhibition of human CAL-72 cell growth in a cell viability assay.

[46] = test system: CAPAN-1; experiment: cells; type: functional, cell-based, Homo sapiens; conditions: Homo sapiens, CAPAN-1;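 note: growth suppression of CAPAN-1 cells, read out by a cell viability assay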
Description: SANGER: Inhibition of human CAPAN-1 cell growth in a cell viability assay.

SMILES: Oc1ccc2ccccc2c1SSc1c(O)ccc2ccccc12
- IC50 [1]: > 32 µM
- IC50 [2]: > 32 µM
- IC50 [3]: > 32 µM
- IC50 [4]: > 32 µM
- IC50 [5]: > 32 µM
- IC50 [6]: > 32 µM
- IC50 [7]: > 32 µM
- IC50 [8]: 7.05 µM
- IC50 [9]: 7.26 µM
- IC50 [10]: > 32 µM
- IC50 [11]: 7.3 µM
- IC50 [12]: > 32 µM
- IC50 [13]: > 32 µM
- IC50 [14]: 0.977 µM
- IC50 [15]: > 32 µM
- IC50 [16]: 12 µM
- IC50 [17]: > 32 µM
- IC50 [18]: > 32 µM
- IC50 [19]: > 32 µM
- IC50 [20]: > 32 µM
- IC50 [21]: > 32 µM
- IC50 [22]: > 32 µM
- IC50 [23]: > 32 µM
- IC50 [24]: > 32 µM
- IC50 [25]: > 32 µM
- IC50 [26]: > 32 µM
- IC50 [27]: > 32 µM
- IC50 [28]: 4.87 µM
- IC50 [29]: 1.18 µM
- IC50 [30]: 21.9 µM
- IC50 [31]: > 32 µM
- IC50 [32]: > 32 µM
- IC50 [33]: > 32 µM
- IC50 [34]: > 32 µM
- IC50 [35]: > 32 µM
- IC50 [36]: > 32 µM
- IC50 [37]: > 32 µM
- IC50 [38]: 4.17 µM
- IC50 [39]: > 32 µM
- IC50 [40]: > 32 µM
- IC50 [41]: > 32 µM
- IC50 [42]: > 32 µM
- IC50 [43]: 30.3 µM
- IC50 [44]: > 32 µM
- IC50 [45]: 24.7 µM
- IC50 [46]: > 32 µM

SMILES: C=C(c1ccc(C(=O)O)cc1)c1cc2c(cc1C)C(C)(C)CCC2(C)C [BEXAROTENE]
- IC50 [1]: > 8 µM
- IC50 [2]: > 8 µM
- IC50 [3]: > 8 µM
- IC50 [4]: > 8 µM
- IC50 [5]: > 8 µM
- IC50 [6]: > 8 µM
- IC50 [7]: > 8 µM
- IC50 [8]: > 8 µM
- IC50 [9]: > 8 µM
- IC50 [10]: > 8 µM
- IC50 [11]: > 8 µM
- IC50 [12]: > 8 µM
- IC50 [13]: > 8 µM
- IC50 [14]: > 8 µM
- IC50 [15]: > 8 µM
- IC50 [16]: > 8 µM
- IC50 [17]: > 8 µM
- IC50 [18]: > 8 µM
- IC50 [19]: > 8 µM
- IC50 [20]: > 8 µM
- IC50 [21]: > 8 µM
- IC50 [22]: > 8 µM
- IC50 [23]: > 8 µM
- IC50 [24]: > 8 µM
- IC50 [25]: > 8 µM
- IC50 [26]: > 8 µM
- IC50 [27]: > 8 µM
- IC50 [28]: > 8 µM
- IC50 [29]: > 8 µM
- IC50 [30]: > 8 µM
- IC50 [31]: > 8 µM
- IC50 [32]: > 8 µM
- IC50 [33]: > 8 µM
- IC50 [34]: > 8 µM
- IC50 [35]: > 8 µM
- IC50 [36]: > 8 µM
- IC50 [37]: > 8 µM
- IC50 [38]: > 8 µM
- IC50 [39]: > 8 µM
- IC50 [40]: > 8 µM
- IC50 [41]: > 8 µM
- IC50 [42]: > 8 µM
- IC50 [43]: > 8 µM
- IC50 [44]: > 8 µM
- IC50 [45]: > 8 µM
- IC50 [46]: > 8 µM
